“And” between values parts separate entries of the source, which are not always exact repeats. Identical values can stand only once. Like-named read-outs stand apart in the source and are kept apart here.
Tests used:
[1] = test system: H146 xenograft tumors; assay: H146 subcutaneous xenograft model; assay type: in vivo, SCID mice
Experimental: (§1) Tumor sizes were measured 2–3 times per week. Tumor growth inhibition was calculated by using the formula: 100% (mean volume of controls - mean volume of treated)/mean volume of controls.
(§2) Figure 10 In vivo antitumor activity of BM-1197. […] Data shown are mean ± SEM for 6–8 mice. (E & F) SCID mice bearing H146 or H1963 cells were treated with 10 mg/kg of BM-1197 IV for the indicated times. Tumor lysates were analyzed by immunoblotting.

[2] = molecular target: T1, Bcl-2 (Mus musculus, UniProt P10417); assay: cellular thermal shift assay (CETSA), Bcl-2; assay type: cell-based; settings: 1 µM, 1 h, MEF MCL1−/− cells
T1 construct: endogenous in cells; host or cells: MEF MCL1-/- cells
Experimental: (§3) Drug-target engagement was assessed using CETSA as described by Molina et al.. Briefly, cells were treated with drugs for 1 h, then harvested, washed with PBS, and resuspended in PBS. The resuspended cells were freeze-thawed 4 times. The soluble fraction (lysate) was separated from cell debris by centrifugation at 20000×g for 20 minutes at 4°C and then analyzed by Western blots.
(§4) Drug-treated cells were heated at gradient temperature from 42°C to 62°C for 3 min then freeze-thawed 4 times. The soluble fractions of the lysed cells were analyzed by immunoblotting. (B) MEF MCL1^− ^/− cells were treated with drugs at the indicated doses for 1 h before collected for CETSA.

[3] = test system: platelets; assay: platelet count / on-target platelet toxicity in mice; assay type: in vivo
Experimental: BM-1197 was administered by IV bolus injected into the tail vein of the mice. Mice were euthanized at different time points with CO2, then ∼0.2 ml of blood was drawn by cardiac puncture using an EDTA treated syringe, transferred to an EDTA treated tube and sent immediately for a Complete Blood Count. The samples were read at the University of Michigan Animal Diagnostic Laboratory on a HEMAVET 950FS Hematology Analyzer.
Figure 11 BM-1197 decreases platelet count in mice. BM-1197 was administered by IV bolus injected into the tail vein. At the indicated time points the mice were euthanized and blood was drawn for complete blood count. Data are mean ± SEM (n = 3).

[4] = test system: H196; assay: SCLC cell growth inhibition (WST-8), H196; assay type: cell-based; settings: Homo sapiens, NCI-H196; 96-h incubation, means ± SD (n = 3–6)
Experimental: (§5) All the SCLC cell lines were purchased from American Type Culture Collection (Manassas, VA) and cultured as recommended. All these cell lines were passaged fewer than 6 months after purchase. MCL1 knockout (MCL1^−/−) MEF cells were kindly provided by Dr. David Huang (The Walter and Eliza Hall Institute of Medical Research, Melbourne, Australia). Cell growth inhibition was evaluated by means of a WST-8 assay (Dojindo, Rockville, MD) as described previously. Mitochondrial membrane potential was determined by JC-1 staining using a JC-1 Mitochondrial Membrane Potential Assay kit (Cayman). Apoptosis analysis was performed using an Annexin V/propidium iodide (PI) apoptosis detection kit (Roche Applied Sciences, Indianapolis, IN).

[5] = test system: H1963 xenograft tumors; assay: H1963 subcutaneous xenograft model; assay type: in vivo, SCID mice
Experimental: as §1, §2

[6] = test system: DMS53; assay: SCLC cell growth inhibition (WST-8), DMS53; assay type: cell-based; settings: Homo sapiens, DMS-53; 96-h incubation, means ± SD (n = 3–6)
Experimental: as §5

[7] = test system: H889; assay: SCLC cell growth inhibition (WST-8), H889; assay type: cell-based; settings: Homo sapiens, NCI-H889; 96-h incubation, means ± SD (n = 3–6)
Experimental: as §5

[8] = test system: H82; assay: SCLC cell growth inhibition (WST-8), H82; assay type: cell-based; settings: Homo sapiens, NCI-H82; 96-h incubation, means ± SD (n = 3–6)
Experimental: as §5

[9] = molecular target: Bcl-2 (Homo sapiens, UniProt P10415); assay: fluorescence-polarization (FP) binding assay, Bcl-2; settings: means ± SD (n≥3)
Text: BM-1197 ( Fig 1 ), was synthesized in a similar manner as described for BM-1074 [16]. We evaluated the binding affinities of BM-1197 to Bcl-2, Bcl-xL and Mcl-1 proteins using our optimized fluorescence-polarization (FP) binding assays.
Data are expressed as means ± SD (n≥3).

[10] = molecular target: T2, Bcl-xL (Mus musculus, UniProt Q64373); assay: cellular thermal shift assay (CETSA), Bcl-xL; assay type: cell-based; settings: MEF MCL1−/− cells
T2 construct: endogenous in cells; host or cells: MEF MCL1-/- cells
Experimental: as §3, §4

[11] = test system: panel of 12 SCLC cell lines; assay: growth inhibition in a panel of 12 SCLC cell lines (summary); assay type: cell-based, human; settings: for IC50: Homo sapiens
Experimental: as §5

[12] = test system: H146; assay: SCLC cell growth inhibition (WST-8), H146; assay type: cell-based; settings: Homo sapiens
Experimental: as §5
Data are representative of two independent experiments.

[13] = molecular target: Mcl-1 (Homo sapiens, UniProt Q07820); assay: fluorescence-polarization (FP) binding assay, Mcl-1
Text: BM-1197 ( Fig 1 ), was synthesized in a similar manner as described for BM-1074 [16]. We evaluated the binding affinities of BM-1197 to Bcl-2, Bcl-xL and Mcl-1 proteins using our optimized fluorescence-polarization (FP) binding assays. […] Of note, the binding affinities of these compounds to Bcl-2 and Bcl-xL proteins are close to the lower limits of the assay and their precise Ki values could not be determined accurately using our competitive, FP binding assays.

[14] = test system: H1417; assay: SCLC cell growth inhibition (WST-8), H1417; assay type: cell-based; settings: Homo sapiens, NCI-H1417; 96-h incubation, means ± SD (n = 3–6)
Experimental: as §5

[15] = IV daily 10 mg/kg, 5 days per week for 2 weeks, 8 mice
[16] = single dose 10 mg/kg IV, as early as 3 h, persisting at least 24 hr

Sequence of Bcl-2 (Homo sapiens, UniProt P10415) (P10415 whole entry): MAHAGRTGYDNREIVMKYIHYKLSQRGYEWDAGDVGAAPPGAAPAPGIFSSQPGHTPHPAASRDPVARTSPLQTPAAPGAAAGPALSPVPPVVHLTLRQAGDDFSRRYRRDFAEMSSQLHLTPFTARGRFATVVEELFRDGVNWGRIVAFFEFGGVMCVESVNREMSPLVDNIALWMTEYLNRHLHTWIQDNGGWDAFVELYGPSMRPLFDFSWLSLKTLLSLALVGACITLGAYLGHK
T2 sequence (Q64373 whole entry): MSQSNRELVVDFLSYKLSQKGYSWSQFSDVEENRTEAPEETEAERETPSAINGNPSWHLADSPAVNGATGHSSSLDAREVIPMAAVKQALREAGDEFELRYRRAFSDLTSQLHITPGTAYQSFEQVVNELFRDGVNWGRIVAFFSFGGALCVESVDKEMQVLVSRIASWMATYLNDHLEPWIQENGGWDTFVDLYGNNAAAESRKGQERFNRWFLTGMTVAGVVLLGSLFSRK
Sequence of Mcl-1 (Q07820 whole entry): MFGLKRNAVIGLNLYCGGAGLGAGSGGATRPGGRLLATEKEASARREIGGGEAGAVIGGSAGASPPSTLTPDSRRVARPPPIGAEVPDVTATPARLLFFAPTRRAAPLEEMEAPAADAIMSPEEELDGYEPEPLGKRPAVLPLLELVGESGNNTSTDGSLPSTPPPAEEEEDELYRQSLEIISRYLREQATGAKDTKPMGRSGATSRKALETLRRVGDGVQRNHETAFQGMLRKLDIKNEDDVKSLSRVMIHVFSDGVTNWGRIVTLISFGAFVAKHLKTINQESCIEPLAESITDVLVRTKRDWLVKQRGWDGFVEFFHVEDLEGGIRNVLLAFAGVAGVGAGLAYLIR
T1 sequence (P10417 whole entry): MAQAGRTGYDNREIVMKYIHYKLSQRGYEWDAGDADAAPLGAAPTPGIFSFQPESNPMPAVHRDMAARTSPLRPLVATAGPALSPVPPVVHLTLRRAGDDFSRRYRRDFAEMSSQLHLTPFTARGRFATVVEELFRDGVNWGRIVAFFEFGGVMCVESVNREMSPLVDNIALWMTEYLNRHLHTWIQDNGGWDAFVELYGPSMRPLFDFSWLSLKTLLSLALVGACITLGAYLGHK

Compound: Cc1c(S(C)(=O)=O)c(-c2cc(F)cc(N3CCN(c4ccc(NS(=O)(=O)c5ccc(N[C@H](CCN6CCC(O)CC6)CSc6ccccc6)c(S(=O)(=O)C(F)(F)F)c5)cc4)CC3)c2)c(-c2ccc(Cl)cc2)n1C(C)C [BM-1197]
- mice tumor free 50 days after the end of the weekly treatment ([1]; 15 mg/kg weekly IV): 5 of 8
- mice with complete tumor regression after eight weekly doses ([1]; 15 mg/kg weekly IV): 7 of 8
- mice with complete tumor regression after five weekly doses ([1]; 15 mg/kg weekly IV): 4 of 8
- decrease of mean tumor volume after 7 doses ([1]; IV daily 10 mg/kg): 85%
- decrease of mean tumor volume after two doses ([1]; IV daily 10 mg/kg): 40%
- mice tumor free 60 days after the end of the treatment [1, 15]: 5 mice
- mice tumor free for at least 32 days after the end of the treatment [1, 15]: 8 mice
- mice with rapid and complete tumor regression [1, 15]: 8 mice
- mean tumor volume after two doses ([1]; IV daily 10 mg/kg, from 114 mm^3): 69 mm^3
- weight loss compared to control group ([1]; all dose-schedules in H146 model, no other signs of toxicity): no statistically significant weight loss
- reduction of mean tumor volume on day 7 ([1]; single 10 mg/kg dosing, weekly IV schedule): 32%
- tumor regression on day 7 ([1]; single 15 mg/kg dosing, weekly IV schedule): 66%
- apoptosis biomarkers in H146 tumors [1, 16]: rapid and robust caspase-3 activation and PARP cleavage
- thermal stability of Bcl-2 protein [2]: enhanced
- lowest platelet count ([3]; 15 mg/kg IV bolus, at 24 h): 96000 µL⁻¹
- bleeding ([3]; repeated daily or weekly intravenous doses in efficacy experiments): did not observe any bleeding
- IC50 [4]: > 2000 nM
- decrease of mean tumor volume seven days after initiation of treatment ([5]; 10 mg/kg daily IV dosing): > 90%
- mice with tumor regrown 40 days after the last dose ([5]; 10 mg/kg daily IV dosing): 1 of 6
- mice with complete tumor regression ([5]; 10 mg/kg daily IV dosing (5 days per week), 6 mice): 6 mice
- mice tumor free for 61 days after the last dose ([5]; 10 mg/kg daily IV dosing, 6 mice): 5 mice
- weight loss ([5]; both daily and weekly dose-schedules): < 10%
- mice with palpable tumor on day 59 ([5]; daily dosing at 10 mg/kg): one of six mice
- apoptosis biomarkers in H1963 tumors [5, 16]: rapid and robust caspase-3 activation and PARP cleavage
- duration of complete tumor regression in 5 out of 6 mice ([5]; weekly dosing (15 mg/kg)): 38 days
- duration of complete tumor regression in all mice ([5]; weekly dosing (15 mg/kg)): 17 days
- reduction of mean tumor volume after a single dose ([5]; weekly dosing (15 mg/kg)): 66%
- tumor response after two doses ([5]; weekly dosing (15 mg/kg)): complete tumor regression
- mice with re-occurring tumor on day 59 ([5]; weekly dosing at 15 mg/kg): all mice
- IC50 [6]: 538 ± 254 nM
- IC50 [7]: 82 ± 20 nM
- IC50 [8]: 698 ± 354 nM
- IC50 [9]: 3.5 ± 0.7 nM
- Ki [9]: < 1 nM and 0.7 nM
- thermal stability of Bcl-xL protein ([10]; 1 µM, 1 h): enhanced
- lowest concentration that efficiently stabilized BCL-xL protein ([10]; 1 h treatment): 16 nM
- fold more potent than ABT-263 ([11]; 4 cell lines most sensitive to BM-1197): 5-26 fold
- IC50 ([11]; 2 of 12 SCLC cell lines, read-out: IC50 values in the 2 cell lines with weak activity): > 2000 nM
- IC50 ([11]; 3 of 12 SCLC cell lines, read-out: IC50 values in the 3 cell lines with moderate activity): ~600 nM
- IC50 ([11]; 7 of 12 SCLC cell lines, read-out: IC50 values in the 7 cell lines with potent activity): 3 to 82 nM
- IC50 ([12]; NCI-H146, 96 h, read-out: IC50 (1% FBS), H146, 4 days, WST assay, 1% FBS): 1.9 nM
- IC50 ([12]; NCI-H146, 96 h, read-out: IC50 (1% FBS+3% HSA), H146, 4 days, WST assay, 1% FBS+3% HSA): 1.9 nM
- IC50 ([12]; NCI-H146, 96 h, read-out: IC50 (10% FBS), H146, 4 days, WST assay, 10% FBS): 2.6 nM
- IC50 ([12]; NCI-H146, 96 h, read-out: IC50 (50% FBS), H146, 4 days, WST assay, 50% FBS): 4.8 nM
- IC50 ([12]; NCI-H146, 96-h incubation, means ± SD (n = 3–6), read-out: IC50 cell growth, H146): 3 ± 2 nM
- binding to Mcl-1 ([13]; at 2 µM): fails to bind
- selectivity over Mcl-1 ([13]; versus Bcl-2 and Bcl-xL): > 1,000 fold
- IC50 [14]: 3 ± 1 nM
